Measured values taken from patent publication US20200399308A1, “COMPOUNDS AND METHODS FOR ELICITING ANTIMICROBIAL ACTIVITY” (Technion Research & Development Foundation Limited, priority 2018, published 2020).
Non-standard residues stand in square brackets, D forms with d. Residues, ends and D or L forms follow the SMILES beside them. *: point of attachment. 12Ado = NCCCCCCCCCCCC(=O)O; Decanoyl = CCCCCCCCCC(=O)*; Orn = NCCC[CH](N)C(=O)O

How the values were obtained:
[1] = system: Klebsiella pneumoniae 1287; assay: Mouse peritonitis-sepsis model; assay type: in vivo; details: for survival frequency: neutropenic ICR mice infected i.p.
[2] = Hydrophobicity (H) by HPLC elution from C18 column; assay type: physicochemical; details: percentage of acetonitrile required for elution

With `CCCCCCCCCC(=O)NC(CCCN)C(=O)NC(CCCN)C(=O)NCCCCCCCCCCCC(=O)NC(CCCN)C(N)=O` (stereo not shown) [Compound B] (Decanoyl-[Orn][Orn][12Ado][Orn]-NH2; configuration not given here) the “animal survival after infection with pretreated bacteria” value ([1]; bacteria exposed in vitro to 5 μM Compound B for 15 minutes, neutropenic mice, 3 days post-infection) was 70%, the survival frequency ([1]; s.c. double doses) was 90% and the survival frequency ([1]; s.c. single dose) was 60%. For the same compound, the “H, hydrophobicity” value [2] was 43%.
